{"source": "paper PMC5356016", "about": "“Suppression of Sin3A activity promotes differentiation of pluripotent cells into functional neurons” (Scientific Reports, 2017)", "key": {"[1]": {"test_system": "Sin3A PAH2-REST interaction", "assay": "Competitive ELISA, inhibition of PAH2-REST binding", "design": "species or system mouse", "settings": "peptide 0-100 μM pre-incubated 2 h, room temperature, GST-REST 2 μg/mL, mean ± s.d., n = 3"}, "[2]": {"test_system": "mouse Sin3A PAH1 (residues 114–195)", "assay": "Fluorescence polarization binding to Sin3A PAH1", "settings": "1 μM FITC-labeled peptide, PAH1 or PAH2 0-10 μM, 20 mM Tris-HCl, 150 mM NaCl, pH 7.5, 30 min, room temperature; ex 495/em 520 nm; mean ± s.d., n = 3"}, "Sin3A-REST interaction": {"test_system": "Sin3A-REST interaction", "assay": "Co-immunoprecipitation of Sin3A and REST from P19 cell lysates", "assay_type": "biochemical, mouse", "settings": "peptide 0, 30, 60 μM, 2 h at 4 °C, anti-REST or anti-Sin3A immunoprecipitation, western blot, at least three experiments", "experimental": "We next examined whether the Mad1 and SAP25 peptides block the Sin3A-REST interaction. First, the ability of these peptides to inhibit the associations of PAH1 and PAH2 with REST was determined using ELISA. […] However, the Mad1 and SAP25 peptides had little effect on the respective PAH1-REST and PAH2-REST interactions. The cellular inhibitory activities of these peptides were then determined using an immunoprecipitation analysis. After incubating P19 cell lysates with several concentrations of SAP25 and MAD1 peptides, REST in the cell lysates was immunoprecipitated using the anti-REST antibody. The precipitates were probed using the anti-Sin3A antibody. […]\nFigure 5 Inhibitory effect of the SAP25 and Mad1 peptides on binding of Sin3A PAH1 or PAH2 to REST. […] Binding of GST-REST to PAH1 and PAH2 was measured using the anti-GST antibody and HRP conjugated secondary antibody (mean ± s.d., n = 3). […] Immunoprecipitation was performed with antibodies against (c) REST and (d) Sin3A, and the amount of co-precipitated proteins was then determined using western blot analysis. ‘Un’ indicates no treatment with a peptide. […]\nFluorescence polarization assay […]\nAfter washing with TBST, GST-REST (2 µg/mL) was added to the wells and then incubated for 2 h. The bound GST-REST to PAH1 or PAH2 was detected by using anti-GST antibody […]"}, "[3]": {"test_system": "Sin3A PAH1-REST interaction", "assay": "Competitive ELISA, inhibition of PAH1-REST binding", "design": "species or system mouse", "settings": "peptide 0-100 μM pre-incubated 2 h, room temperature, GST-REST 2 μg/mL, mean ± s.d., n = 3"}, "Sin3A PAH1": {"target": "Sin3A PAH1", "settings": "SAP25 protein sequence 171–186, ref [35]; cited from earlier work", "excerpt": "(§1) If this proposal is correct, a synthetic inhibitor of Sin3A-REST interactions should promote neurogenesis of these cells. Previous studies have shown that the N-terminal PAH1 and PAH2 domains of Sin3A bind to the N-terminal region of REST[6]."}, "[4]": {"test_system": "mouse Sin3A PAH2 (residues 295–385)", "assay": "Fluorescence polarization binding to Sin3A PAH2", "settings": "1 μM FITC-labeled peptide, PAH1 or PAH2 0-10 μM, 20 mM Tris-HCl, 150 mM NaCl, pH 7.5, 30 min, room temperature; ex 495/em 520 nm; mean ± s.d., n = 3"}, "Sin3A PAH2": {"target": "Sin3A PAH2", "settings": "Mad1 protein sequence 6–21, ref [34]; cited from earlier work", "excerpt": "as §1"}, "P19 cells": {"test_system": "P19 cells", "assay": "Neuronal differentiation of P19 cells (immunocytochemistry, western blot, RT-PCR)", "assay_type": "cell-based, mouse", "settings": "30 μM TAT, 10 days, Tuj1 antibody"}, "[5]": {"test_system": "voltage-gated sodium channels", "assay_type": "cell-based, mouse"}, "[6]": {"test_system": "voltage-gated sodium channels", "assay_type": "cell-based, mouse", "remark": "listed apart in the source"}}, "note": "“Also recorded” adds a separate entry of the source.", "data": [{"compound": "AEMIALAGLLQMSQGEX [SAP25 peptide]", "values": [{"measurement": "inhibition of PAH2-REST binding (in words)", "setting": "[1]", "value": "little effect"}, {"measurement": "binding to Sin3A PAH1 (in words)", "setting": "[2]", "value": "bind PAH1 much more tightly than PAH2"}, {"measurement": "inhibition of Sin3A-REST interaction (in words)", "setting": "Sin3A-REST interaction", "value": "Mad1 peptide exhibited a much greater ability to block interactions of Sin3A with REST than the SAP25 peptide"}, {"measurement": "inhibition of PAH1-REST binding (in words)", "setting": "[3]", "value": "the level of inhibition of binding of PAH2 to REST by Mad1 was greater than that of SAP25 toward PAH1-REST interactions"}, {"measurement": "Kd", "setting": "Sin3A PAH1", "value": 134, "unit": "nM"}]}, {"compound": "RMNIQMLLEAADYLERX [Mad1 peptide]", "values": [{"measurement": "inhibition of PAH2-REST binding (in words)", "setting": "[1]", "value": "the level of inhibition of binding of PAH2 to REST by Mad1 was greater than that of SAP25 toward PAH1-REST interactions"}, {"measurement": "inhibition of Sin3A-REST interaction (in words)", "setting": "Sin3A-REST interaction", "value": "much greater ability to block interactions of Sin3A with REST than the SAP25 peptide; also recorded: has inhibitory activity against REST-Sin3A interactions in cells"}, {"measurement": "binding to Sin3A PAH2 (in words)", "setting": "[4]", "value": "interact with PAH2 much more strongly than PAH1"}, {"measurement": "inhibition of PAH1-REST binding (in words)", "setting": "[3]", "value": "little effect"}, {"measurement": "Kd", "setting": "Sin3A PAH2", "value": 29, "unit": "nM"}]}, {"compound": "YGRKKRRQRRR [TAT]", "values": [{"measurement": "neuronal differentiation (in words), TAT control", "setting": "P19 cells", "value": "did not affect neuronal differentiation"}]}, {"compound": "NC1=N[C@H](O)[C@H]2[C@H]3O[C@]4(O)O[C@@H]([C@@H](O)[C@@]2(N1)[C@@H]4O)[C@]3(O)CO", "note": "[TTX, tetrodotoxin]", "values": [{"measurement": "effect of TTX on action potentials elicited by current injections (in words)", "setting": "[5]", "value": "almost completely blocked"}, {"measurement": "effect of TTX on current injection-promoted action potentials (in words)", "setting": "[6]", "value": "almost completely abrogated"}]}]}
